# Test results from patent US7655768B2, “Galactose derivative, drug carrier and medicinal composition” (Nippon Shinyaku Co., Ltd., priority 2004, dated 2010).
# System: HuH-7 cells (human hepatoma cell line)
# Test: Expression efficiency of luciferase plasmid DNA delivered by carrier compositions in HuH-7 cells
# Assay type: cell-based
# Conditions: 24 hours after addition of composition, carriers of Examples 9 to 13 with rising content of the Example 2 derivative, compared with carrier of Comparative Example 1, FIG. 1
# Protocol: By adding 50 μL of 10% maltose solution to 1 μg of the plasmid DNA encording luciferase gene, 50 μL of the plasmid solution containing the plasmid at 20 μg/mL was prepared. In addition, by adding 44 μL of 10% maltose solution to 6 μL of the dispersion liquid of the carrier according to Example 9 to 13 or Comparative Example 1, 50 μL of the diluted solution of the carrier at 600 μg/mL was prepared.
# 50 μL of the above nucleic acid solution was added to 50 μL of the above diluted solution of the carrier, and then mixed gently. Then, the sample was left at room temperature for 15 minutes to prepare 100 μL of the composition solution containing the above plasmid at 10 μg/mL.
# HuH-7 cells (human hepatoma cell line) were seeded on a 96-well plate at 1×10^4 cells/well, and were incubated for 18 hours at 37° C. under 5% CO2. Then, 10 μL of the composition containing the carrier according to Example 9 to 13 or Comparative Example 1 prepared above (1) was added per well, and incubation was further continued. After 24 hours from addition of the composition, luciferase activity was measured. Luciferase activity was measured by detecting the bioluminescence with Top Count (manufactured by Packard), using Steady Glo Luciferase Assay System (manufactured by Promega). Meanwhile, a comparative control was a cell given the composition containing the carrier according to Comparative Example 1.
structure (smiles),measurement,value
"CCCCCCCC/C=C\CCCCCCCC(=O)OC[C@H](COP(=O)(O)OCCOCCOCCOCCOCCNC[C@H](O)[C@@H](O)[C@H](O[C@@H]1O[C@H](CO)[C@H](O)[C@H](O)[C@H]1O)[C@H](O)CO)OC(=O)CCCCCCC/C=C\CCCCCCCC [Example 2, L-α-dioleoylphosphatidyl{14-N-(1-deoxylactito-1-yl)amino-3,6,9,12-tetraoxa}tetradecanol]",expression efficiency of luciferase gene (luciferase activity),increased as compared with that in the comparative control as a function of concentration of the derivative of the present invention
